In patent US5154929A, “Percutaneous absorption type preparation and process for preparing the same” (Nitto Denko Corporation, priority 1988, dated 1992):

Assay: Saturated solubility of the drug in the pressure-sensitive adhesive

SMILES	Saturated Solubility (in adhesive of Comparative Example 5 (2-ethylhexylacrylate 85, N-vinyl-2-pyrrolidone 15)) [%]	Saturated Solubility (in adhesive of Comparative Example 6 (2-ethylhexylacrylate 75, N-vinyl-2-pyrrolidone 25)) [%]	Saturated Solubility (in adhesive of Example 4 (2-ethylhexylacrylate 85, N-vinyl-2-pyrrolidone 15)) [%]	Saturated Solubility (in adhesive of Comparative Example 3 (nonylacrylate 75, ethoxyethylacrylate 15, vinyl acetate 10)) [%]	Saturated Solubility (in adhesive of Comparative Example 4 (nonylacrylate 60, ethoxyethylacrylate 20, vinyl acetate 20)) [%]	Saturated Solubility (in adhesive of Example 3 (nonylacrylate 75, ethoxyethylacrylate 15, vinyl acetate 10)) [%]
CC(C)NCC(O)COc1cccc2[nH]ccc12 (stereo not drawn) [Pindolol]	7	6	7			
CN1C(=O)CN=C(c2ccccc2F)c2cc([N+](=O)[O-])ccc21 [Flunitrazepam]				3.5	4	3.5
